Assay results reported in ChEMBL document CHEMBL1201862, “PubChem BioAssay data set” (2004).
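Dose response: 5 concentrations. Exposure: 48 h. Format: 96-well plates. Endpoint: linear interpolation; highest concentration if not reached. Abbreviation: GI50, concentration required for 50% inhibition of growth.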 Activity calls are given as the source filed them. Rule as the data show it: active = GI50 up to about 1.1 µM and inactive = higher.

Legend:
Experiment in all cases: NCI tumour cell line growth inhibition, 48 h
OVCAR-3 = test system: OVCAR-3
SF-539 = test system: SF-539
SW-620 = test system: SW-620
OVCAR-8 = test system: OVCAR-8
DLD-1 = test system: DLD-1
SF-268 = test system: SF-268
RXF 393 = test system: RXF 393
SR = test system: SR
EKVX = test system: EKVX
K562 = test system: K562
CCRF-CEM = test system: CCRF-CEM
UO-31 = test system: UO-31
SF-295 = test system: SF-295
KM12 = test system: KM12
SK-MEL-2 = test system: SK-MEL-2
SK-OV-3 = test system: SK-OV-3
A498 = test system: A498
HCC 2998 = test system: HCC 2998
NCI-H23 = test system: NCI-H23
SNB-75 = test system: SNB-75
CAKI-1 = test system: CAKI-1
RXF 631 = test system: RXF 631
SK-MEL-28 = test system: SK-MEL-28
A549 = test system: A549
NCI-H522 = test system: NCI-H522
NCI-H460 = test system: NCI-H460
M19-MEL = test system: M19-MEL
HL-60 = test system: HL-60
OVCAR-5 = test system: OVCAR-5
HCT-116 = test system: HCT-116
IGROV-1 = test system: IGROV-1
NCI-H226 = test system: NCI-H226
ACHN = test system: ACHN
MOLT-4 = test system: MOLT-4
UACC-62 = test system: UACC-62
UACC-257 = test system: UACC-257
DMS-273 = test system: DMS-273
XF498 = test system: XF498
COLO 205 = test system: COLO 205
SK-MEL-5 = test system: SK-MEL-5
SNB-19 = test system: SNB-19
DMS-114 = test system: DMS-114
HCT-15 = test system: HCT-15
RPMI-8226 = test system: RPMI-8226
SNB-78 = test system: SNB-78
U-251 = test system: U-251
786-0 = test system: 786-0
LOX IMVI = test system: LOX IMVI
HT-29 = test system: HT-29
M14 = test system: M14
LXFL 529 = test system: LXFL 529
HOP-18 = test system: HOP-18
HOP-62 = test system: HOP-62
Malme-3M = test system: Malme-3M
HOP-92 = test system: HOP-92
OVCAR-4 = test system: OVCAR-4
KM-20L2 = test system: KM-20L2
SN12C = test system: SN12C
TK-10 = test system: TK-10
DU-145 = test system: DU-145
MDA-N = test system: MDA-N
T47D = test system: T47D
MDA-MB-231 = test system: MDA-MB-231
MDA-MB-435 = test system: MDA-MB-435
NCI/ADR-RES = test system: NCI/ADR-RES
Hs-578T = test system: Hs-578T
PC-3 = test system: PC-3
BT-549 = test system: BT-549
MCF7 = test system: MCF7

`c1ccc2c(c1)cc(C1NCCc3nc[nH]c31)c1ccccc12` (stereo not drawn) was tested, and the GI50 (OVCAR-3) was > 61.9 µM (inactive), the GI50 (SF-539) was > 45.2 µM (inactive) and the GI50 (SW-620) was 25.5 µM (inactive). The GI50 (OVCAR-8) was > 68.9 µM (inactive), the GI50 (DLD-1) was 63.8 µM (inactive) and the GI50 (SF-268) was 77.1 µM (inactive). For the same compound, the GI50 (RXF 393) was 31.7 µM (inactive), the GI50 (SR) was 34.3 µM (inactive) and the GI50 (EKVX) was > 100 µM (inactive). For the same compound, the GI50 (K562) was 15.2 µM (inactive), the GI50 (CCRF-CEM) was 27.2 µM (inactive) and the GI50 (UO-31) was 33.7 µM (inactive). For the same compound, the GI50 (SF-295) was 56.2 µM (inactive), the GI50 (KM12) was 47.6 µM (inactive) and the GI50 (SK-MEL-2) was 18.4 µM (inactive). The GI50 (SK-OV-3) was > 100 µM (inactive), the GI50 (A498) was 22.5 µM (inactive) and the GI50 (HCC 2998) was 15.7 µM (inactive). The GI50 (NCI-H23) was > 100 µM (inactive), the GI50 (SNB-75) was 32.7 µM (inactive) and the GI50 (CAKI-1) was 48.8 µM (inactive). The GI50 (RXF 631) was 50.8 µM (inactive), the GI50 (SK-MEL-28) was > 47.6 µM (inactive) and the GI50 (A549) was 54.5 µM (inactive). The GI50 (NCI-H522) was 27.7 µM (inactive), the GI50 (NCI-H460) was 22.6 µM (inactive) and the GI50 (M19-MEL) was 29.6 µM (inactive). The GI50 (HL-60) was 41.6 µM (inactive), the GI50 (OVCAR-5) was > 74.3 µM (inactive) and the GI50 (HCT-116) was 21.1 µM (inactive). The GI50 (IGROV-1) was > 54.6 µM (inactive), the GI50 (NCI-H226) was 27.7 µM (inactive) and the GI50 (ACHN) was 23.2 µM (inactive). The GI50 (MOLT-4) was 21 µM (inactive), the GI50 (UACC-62) was 22.6 µM (inactive) and the GI50 (UACC-257) was 31 µM (inactive). For the same compound, the GI50 (DMS-273) was 29.7 µM (inactive), the GI50 (XF498) was 22.5 µM (inactive) and the GI50 (COLO 205) was 13.5 µM (inactive). The GI50 (SK-MEL-5) was > 48 µM (inactive), the GI50 (SNB-19) was > 100 µM (inactive) and the GI50 (DMS-114) was > 47.2 µM (inactive). The GI50 (HCT-15) was 59.6 µM, the GI50 (RPMI-8226) was 37.6 µM (inactive) and the GI50 (SNB-78) was > 86.5 µM (inactive). The GI50 (U-251) was 39.1 µM (inactive), the GI50 (786-0) was 32.1 µM (inactive) and the GI50 (LOX IMVI) was 19.8 µM (inactive). For the same compound, the GI50 (HT-29) was 44.4 µM (inactive), the GI50 (M14) was 18.5 µM (inactive) and the GI50 (LXFL 529) was 41.3 µM (inactive). The GI50 (HOP-18) was > 62.1 µM (inactive), the GI50 (HOP-62) was 32.4 µM (inactive) and the GI50 (Malme-3M) was 30.6 µM (inactive). For the same compound, the GI50 (HOP-92) was > 44.4 µM (inactive), the GI50 (OVCAR-4) was 37.2 µM (inactive) and the GI50 (KM-20L2) was 56.5 µM (inactive). The GI50 (SN12C) was 56 µM (inactive) and the GI50 (TK-10) was > 100 µM (inactive).

In the case of `COc1ccc(C(=O)c2cc(OC)c(OC)c(OC)c2)cc1`, the GI50 (OVCAR-3) is reported as 0.0769 µM (active), the GI50 (SF-539) is reported as 0.152 µM (active) and the GI50 (SW-620) is reported as 0.0556 µM (active). For the same compound, the GI50 (OVCAR-8) was 0.382 µM (active), the GI50 (DLD-1) was 0.204 µM (active) and the GI50 (SF-268) was 0.838 µM (active). For the same compound, the GI50 (DU-145) was 205 nM (active), the GI50 (RXF 393) was 0.331 µM (active) and the GI50 (SR) was 0.0581 µM (active). The GI50 (EKVX) was 0.484 µM (active), the GI50 (K562) was 0.0392 µM (active) and the GI50 (MDA-N) was 16 nM (active). The GI50 (CCRF-CEM) was 0.0879 µM (active), the GI50 (UO-31) was 1 µM (active) and the GI50 (SF-295) was 0.0399 µM (active). For the same compound, the GI50 (KM12) was 0.0481 µM (active), the GI50 (SK-MEL-2) was 0.342 µM (active) and the GI50 (SK-OV-3) was 1.14 µM (inactive). The GI50 (T47D) was 27.5 µM (inactive), the GI50 (A498) was 0.0713 µM (active) and the GI50 (MDA-MB-231) was 88.1 nM (active). For the same compound, the GI50 (HCC 2998) was 0.321 µM (active), the GI50 (NCI-H23) was 0.324 µM (active) and the GI50 (SNB-75) was 0.0726 µM (active). For the same compound, the GI50 (CAKI-1) was 0.0738 µM (active), the GI50 (RXF 631) was 0.184 µM (active) and the GI50 (SK-MEL-28) was 0.733 µM (active). The GI50 (A549) was 0.106 µM (active), the GI50 (NCI-H522) was 0.0715 µM (active) and the GI50 (NCI-H460) was 0.0735 µM (active). For the same compound, the GI50 (M19-MEL) was 0.893 µM (active), the GI50 (HL-60) was 0.031 µM (active) and the GI50 (OVCAR-5) was 5.98 µM (inactive). For the same compound, the GI50 (HCT-116) was 0.0703 µM (active), the GI50 (MDA-MB-435) was 19.7 nM (active) and the GI50 (IGROV-1) was 0.219 µM (active). The GI50 (NCI-H226) was 1.11 µM (active), the GI50 (ACHN) was 1.29 µM (inactive) and the GI50 (NCI/ADR-RES) was 54 nM (active). For the same compound, the GI50 (MOLT-4) was 0.0715 µM (active), the GI50 (UACC-62) was 0.0501 µM (active) and the GI50 (UACC-257) was 0.769 µM (active). The GI50 (DMS-273) was 0.0863 µM (active), the GI50 (XF498) was 0.432 µM (active) and the GI50 (COLO 205) was 0.0706 µM (active). The GI50 (SK-MEL-5) was 0.0702 µM (active), the GI50 (Hs-578T) was 111 nM (active) and the GI50 (SNB-19) was 0.199 µM (active). The GI50 (DMS-114) was 0.285 µM (active), the GI50 (HCT-15) was 0.0566 µM and the GI50 (PC-3) was 77.5 nM (active). The GI50 (RPMI-8226) was 0.169 µM (active), the GI50 (SNB-78) was 0.194 µM (active) and the GI50 (U-251) was 0.206 µM (active). For the same compound, the GI50 (786-0) was 0.169 µM (active), the GI50 (LOX IMVI) was 0.147 µM (active) and the GI50 (HT-29) was 0.0372 µM (active). For the same compound, the GI50 (M14) was 0.0753 µM (active), the GI50 (LXFL 529) was 0.221 µM (active) and the GI50 (HOP-18) was > 100 µM (inactive). For the same compound, the GI50 (HOP-62) was 0.7 µM (active), the GI50 (Malme-3M) was 0.0586 µM (active) and the GI50 (HOP-92) was 2.41 µM (inactive). For the same compound, the GI50 (BT-549) was 923 nM (active), the GI50 (OVCAR-4) was 28.6 µM (inactive) and the GI50 (KM-20L2) was 0.0715 µM (active). For the same compound, the GI50 (SN12C) was 0.705 µM (active), the GI50 (TK-10) was 4.11 µM (inactive) and the GI50 (MCF7) was 99.1 nM (active).
